In ChEMBL document CHEMBL1201862, “PubChem BioAssay data set” (2004):
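In this assay, cells in 96-well plates receive the compound at five concentrations for 48 hours. Endpoints are linearly interpolated between the surrounding concentrations. Abbreviation: GI50, concentration required for 50% inhibition of growth.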 Activity calls are given as the source filed them. No stated cut-off is given here; in the data, active = GI50 up to about 1.1 µM and inactive = higher.

Assays:
Assay in all cases: NCI-60 cell line screen, 48 h
SF-539 = test system: SF-539
OVCAR-8 = test system: OVCAR-8
SW-620 = test system: SW-620
M14 = test system: M14
HCT-116 = test system: HCT-116
UACC-62 = test system: UACC-62
SNB-75 = test system: SNB-75
OVCAR-5 = test system: OVCAR-5
NCI-H460 = test system: NCI-H460
SK-MEL-2 = test system: SK-MEL-2
HOP-92 = test system: HOP-92
Malme-3M = test system: Malme-3M
SF-295 = test system: SF-295
K562 = test system: K562
SK-OV-3 = test system: SK-OV-3
EKVX = test system: EKVX
RPMI-8226 = test system: RPMI-8226
RXF 393 = test system: RXF 393

Measured: GI50

CN(C(=O)C12C3C4C1C1C4(C(=O)C45C6C7C4C4C5C6C74C)C3C12C)C(C)(C)C (stereo unspecified)
inactive: SF-539 > 100 µM | OVCAR-8 > 100 µM | SW-620 > 100 µM | M14 > 100 µM | HCT-116 52.7 µM | UACC-62 48.3 µM | SNB-75 > 100 µM | OVCAR-5 88.1 µM | NCI-H460 54.6 µM | SK-MEL-2 > 100 µM | HOP-92 28.6 µM | Malme-3M > 100 µM | SF-295 > 100 µM | K562 26.4 µM | SK-OV-3 90.4 µM | EKVX > 100 µM

COC(=O)C1CC2C=CC=CC(=O)C2(C)C1 (stereo unspecified)
inactive: SF-539 > 100 µM | OVCAR-8 41.1 µM | SW-620 27.2 µM | M14 30.5 µM | HCT-116 28 µM | UACC-62 39.9 µM | OVCAR-5 > 100 µM | NCI-H460 41.8 µM | SK-MEL-2 59.6 µM | RPMI-8226 22.6 µM | Malme-3M 49.7 µM | SF-295 53.6 µM | K562 30.7 µM | SK-OV-3 > 100 µM | EKVX > 100 µM

C[N+](C)(C)CC(=O)N/N=C(/Cc1cc(=O)oc2cc(O)ccc12)C(=O)Nc1ccc(Cl)cc1
inactive: SF-539 > 100 µM | OVCAR-8 > 100 µM | SW-620 > 100 µM | M14 > 100 µM | HCT-116 > 100 µM | UACC-62 > 100 µM | OVCAR-5 > 100 µM | NCI-H460 > 100 µM | SK-MEL-2 > 100 µM | RPMI-8226 > 100 µM | Malme-3M > 100 µM | SF-295 > 100 µM | K562 > 100 µM | SK-OV-3 > 100 µM | RXF 393 > 100 µM | EKVX > 100 µM

CC(C)N(C(=O)C12C3C4C1C1C2C3C41C(O)C(C)(C)C)C(C)C (stereo unspecified)
inactive: SF-539 > 50 µM | OVCAR-8 > 50 µM | SW-620 > 50 µM | M14 > 50 µM | HCT-116 > 50 µM | UACC-62 > 50 µM | SNB-75 26.2 µM | HOP-92 34.7 µM | Malme-3M > 50 µM | SF-295 > 50 µM | K562 > 50 µM | SK-OV-3 > 50 µM | EKVX > 50 µM

CC[N+](CC)(CC)Cc1cc2ccccc2n1C(=O)OC
inactive: SF-539 > 100 µM | OVCAR-8 > 100 µM | SW-620 > 100 µM | M14 > 100 µM | HCT-116 > 100 µM | UACC-62 > 100 µM | SNB-75 87.9 µM | OVCAR-5 > 100 µM | NCI-H460 > 100 µM | SK-MEL-2 > 100 µM | RPMI-8226 > 100 µM | HOP-92 > 100 µM | Malme-3M > 100 µM | SF-295 > 100 µM | K562 > 100 µM

CC(C)(C)c1cc(C(=O)O)c(C(c2ccccc2)c2ccccc2C(=O)O)c(C(=O)O)c1 (stereo unspecified)
inactive: SF-539 > 100 µM | OVCAR-8 > 100 µM | SW-620 > 100 µM | M14 > 100 µM | HCT-116 > 100 µM | UACC-62 > 100 µM | SNB-75 21.7 µM | OVCAR-5 > 100 µM | NCI-H460 > 100 µM | SK-MEL-2 > 100 µM | Malme-3M > 100 µM | SF-295 > 100 µM | K562 > 100 µM | SK-OV-3 21.7 µM | RXF 393 > 100 µM | EKVX > 100 µM

CCc1cccc(C)c1N1C(=O)C(=O)C(c2nc3ccccc3o2)C(=O)C1=O
inactive: SF-539 > 100 µM | OVCAR-8 > 100 µM | SW-620 > 100 µM | M14 > 100 µM | HCT-116 > 100 µM | UACC-62 > 100 µM | SNB-75 45.7 µM | OVCAR-5 > 100 µM | NCI-H460 > 100 µM | SK-MEL-2 > 100 µM | RPMI-8226 > 100 µM | HOP-92 > 100 µM | Malme-3M > 100 µM | SF-295 > 100 µM | K562 > 100 µM | SK-OV-3 > 100 µM | EKVX > 100 µM

CN/N=C(\C)c1c(O)cc(C)oc1=O
inactive: SF-539 > 100 µM | OVCAR-8 > 100 µM | SW-620 > 100 µM | M14 > 100 µM | HCT-116 > 100 µM | UACC-62 > 100 µM | SNB-75 > 100 µM | NCI-H460 > 100 µM | SK-MEL-2 > 100 µM | HOP-92 > 100 µM | Malme-3M > 100 µM | SF-295 > 100 µM | K562 > 100 µM | SK-OV-3 > 100 µM | EKVX > 100 µM

CC1(C)O[C@@H](CC/C=C/CO)[C@H](CC/C=C/CO)O1
inactive: SF-539 > 100 µM | OVCAR-8 > 100 µM | SW-620 > 100 µM | M14 > 100 µM | HCT-116 > 100 µM | SNB-75 > 100 µM | OVCAR-5 > 100 µM | NCI-H460 > 100 µM | SK-MEL-2 > 100 µM | RPMI-8226 > 100 µM | HOP-92 > 100 µM | Malme-3M > 100 µM | SF-295 > 100 µM | K562 > 100 µM | SK-OV-3 > 100 µM | EKVX > 100 µM

CC(C)NCCNC(=O)c1ccccc1Nc1c(Cl)cccc1Cl
inactive: SF-539 15.8 µM | OVCAR-8 16.6 µM | SW-620 15.5 µM | M14 11.5 µM | HCT-116 11.3 µM | UACC-62 15.8 µM | SNB-75 4.63 µM | OVCAR-5 7.38 µM | NCI-H460 3.29 µM | RPMI-8226 3.81 µM | SF-295 15.2 µM | K562 6.95 µM | SK-OV-3 14.8 µM | RXF 393 5.08 µM | EKVX 13.6 µM

O=C(/C=C\c1cccc2ccccc12)c1ccc(F)cc1
inactive: SF-539 21.5 µM | OVCAR-8 14.8 µM | SW-620 7.52 µM | M14 16.2 µM | HCT-116 13.9 µM | UACC-62 13.9 µM | SNB-75 30.5 µM | OVCAR-5 16.6 µM | NCI-H460 17.8 µM | RPMI-8226 4.21 µM | HOP-92 11.9 µM | Malme-3M 17.7 µM | SF-295 19.3 µM | K562 11.1 µM | SK-OV-3 23.5 µM | EKVX 18.8 µM

CCOC(=O)c1cc(/C=C/C(C)=C/C(=O)OC)n(C)c1C
inactive: SF-539 77.8 µM | OVCAR-8 > 100 µM | SW-620 > 100 µM | M14 > 100 µM | UACC-62 50.6 µM | OVCAR-5 > 100 µM | NCI-H460 > 100 µM | RPMI-8226 36.2 µM | HOP-92 > 100 µM | Malme-3M > 100 µM | SF-295 > 100 µM | K562 25.8 µM | SK-OV-3 > 100 µM | EKVX > 100 µM

O=C(O)CCN(CCCN(CCC(=O)O)CCC(=O)O)CCC(=O)O
inactive: SF-539 > 100 µM | OVCAR-8 > 100 µM | SW-620 > 100 µM | M14 > 100 µM | HCT-116 > 100 µM | UACC-62 > 100 µM | SNB-75 74.8 µM | OVCAR-5 > 100 µM | NCI-H460 > 100 µM | SK-MEL-2 > 100 µM | RPMI-8226 > 100 µM | HOP-92 > 100 µM | Malme-3M > 100 µM | SF-295 > 100 µM | K562 > 100 µM | SK-OV-3 > 100 µM | EKVX > 100 µM
